Measurements from US20250312433A1, “Process for Producing of Vaccine Formulations With Preservatives” (priority 2022, published 2025).

Columns and labels:
[1] = Dissolution time of 2-PE in Succinate Buffered Saline (visual observation); format: physicochemical; settings: 300 rpm, about 20° C.; for 2-PE bulk dissolution Time: all dissolved besides up to approximately 5 small particles
Experimental: (§1) The objective of this study was to evaluate the dissolution time and solubility of 2-phenoxyethanol (2-PE). 2-PE dissolution and concentration were evaluated at the following concentrations in Succinate Buffered Saline (SBS) (5 mM succinate, 150 mM NaCl, pH 5.8); 11 g/L, 16.5 g/L, and 20 g/L.
(§2) Appropriate amount of 2-PE was weighed out in 400 ml beaker and appropriate amount of succinate buffered saline was added. Agitation speed was 300 rpm and solution temperature about 20° C. The time for complete dissolution based on visual observation was recorded. 2-PE concentration was measured by RP-HPLC.

[2] = 2-PE concentration / solubility in Succinate Buffered Saline by RP-HPLC; format: physicochemical; settings: for Measured 2-PE concentration: RP-HPLC
Experimental: as §1, §2

OCCOc1ccccc1 [2-PE, 2-phenoxyethanol]
2-PE bulk dissolution Time ([1]; 11 mg/mL 2-PE in SBS (5 mM succinate, 150 mM NaCl, pH 5.8)): 7 min
2-PE bulk dissolution Time ([1]; 16.5 mg/mL 2-PE in SBS): 9 min
2-PE bulk dissolution Time ([1]; 20 mg/mL 2-PE in SBS): 15 min
2-PE complete dissolution time ([1]; 20 mg/mL 2-PE in SBS, all small particles dissolved): 35 min
measured 2-PE concentration below the target concentration ([2]; all concentrations (11, 16.5, 20 mg/mL) in SBS): approximately 5%
solubility ([2]; aqueous buffer, thermodynamic from solid, succinate-buffered saline (pH 5.8) at 20° C.): ≥ 19.1 mg/mL
Percent Difference (measured − target)/target × 100 ([2]; target 11.0 mg/mL in SBS): −4.5%
Measured 2-PE concentration ([2]; target 11.0 mg/mL in SBS): 10.5 mg/mL
Percent Difference (measured − target)/target × 100 ([2]; target 16.5 mg/mL in SBS): −5.5%
Measured 2-PE concentration ([2]; target 16.5 mg/mL in SBS): 15.6 mg/mL
Percent Difference (measured − target)/target × 100 ([2]; target 20.0 mg/mL in SBS): −4.5%
Measured 2-PE concentration ([2]; target 20.0 mg/mL in SBS): 19.1 mg/mL
